Data set [1] relates to P. aeruginosa. Briefly: Killing of logarithmic, stationary and biofilm cultures, colony count. It counts as cell-based. To be noted: for percentage of live cells: 5 μg/ml, 6 hrs. How it is done: Persister cells in planktonic and biofilm populations are characterized for their antibiotic sensitivity in this example. Several bactericidal antimicrobials were chosen to test the resistance of P. aeruginosa to killing—ofloxacin, a fluoroquinolone; tobramycin, an aminoglycoside; carbenicillin, a β-lactam; and peracetic acid, a disinfectant oxidant (Spoering et al. (2001) J. Bacteriol. 183:6746-6751). Biofilms were grown essentially by the method of Ceri (Ceri et al. (1999) J. Clin. Microbiol. 37:1771-1776) and as described in Brooun et al. (2000) Antimicrob. Agents Chemother. 44:640-646. The device used for biofilm formation is a platform carrying 96 polystyrene pegs that fit in a microtiter plate. Preformed biofilms were incubated in the presence of an antimicrobial agent, and survival was measured after disrupting the biofilms by colony count.
Logarithmic state, stationary and biofilm cultures were challenged with carbenicillin. Carbenicillin is a bactericidal antibiotic that, similarly to most β-lactams, only kills rapidly growing cells (Tuomanen et al. (1986) Scand. J. Gastroenterol. Suppl:10-14). […] The amount of killing of logarithmic cells approached a plateau at concentrations above 1.67×MIC, indicating the presence of a persister subpopulation. These 0.1% cells in the rapidly growing logarithmic culture were invulnerable to killing by carbenicillin at 600 μg/ml.
Unlike carbenicillin, ofloxacin can kill non-growing cells (Brooun et al. (2000) Antimicrob. Agents Chemother. 44:640-646). Logarithmic, stationary and biofilm cultures were challenged with ofloxacin over a wide range of concentrations, from 1×MIC (0.5 μg/ml) to 30×MIC (15 μg/ml). After a 6 hrs incubation time with the antibiotic, viability was determined by colony count. The majority of cells in the three populations examined were killed at low concentrations of ofloxacin (FIG. 3B). The killing in all three cultures was distinctly biphasic, indicating the presence of persister cells. The levels of persisters were dramatically higher in the dense stationary planktonic and biofilm cultures as compared to logarithmic cells. […] At 5 μg/ml ofloxacin, which is the clinically achievable concentration (Schulz et al. (1997) Pharmazie 52:895-911), the percentage of live cells was 0.001% in the logarithmic population, 0.1% in the biofilm and 2.5% in the stationary culture (FIG. 3B).
Tobramycin at 50 μg/ml (the maximal clinically achievable concentration is 10 μg/ml), (Schulz et al. (1997) Pharmazie 52:895-911) eliminated 90% of the biofilm cells, and the remaining population declined gradually with increasing amounts of the antibiotic. At high concentrations surviving persisters became apparent. Tobramycin was ineffective against stationary planktonic cells, apparently due to the dependence of killing of growth.
Peracetic acid, an oxidizing disinfectant, was used in order to test the ability of a sterilizing agent to act against persisters. […] Similar results showing biphasic killing, and high level of persisters in stationary and biofilm populations, also were obtained with S. aureus and E. coli (Keren et al. (2004) FEMS Microbiol. Lett. 230:13-18).

Data set [2] has as its system P. aeruginosa. Briefly: MIC. To be noted: Pseudomonas aeruginosa; 1×MIC. It counts as cell-based.
For data set [3] the following is noted: Schulz et al. (1997); cited from earlier work.
The test system of data set [4] is E. coli K12 knockout pool (BacPool) and wild type. Briefly: Prodrug screen, growth/no growth of BacPool knockout mix versus wild type. It counts as cell-based. To be noted: compounds at about 46-50 μg/ml, OD600 after overnight incubation. From the text:
A complete, ordered E. coli K12 knockout library of 4320 genes and predicted ORFs (the Keio library) was used (Baba et al. (2006). Mol. Systems Biol. 2:2006.0008). The knockouts were constructed using the Wanner method with a kanamycin cassette replacing the ORFs (Datsenko et al. (2000) Proc. Natl. Acad. Sci. USA 97:6640-6645). All strains of this library were combined in a mix BacPool1) for screening. This permitted screening of the library against all strains simultaneously, instead of screening a full industry-size library against each of the individual E. coli 4×10^3 knockout strains.
The library mix was prepared by first culturing all strains overnight in LB medium, and then adding equal aliquots into a tube. This material was then mixed, dispensed in vials and stored at −80° C. For the screen, one vial was thawed, diluted to 10^5 cells/ml in LB, and dispensed into 384 well microtiter plates. The compounds were added from DMSO stocks at a final concentration of 46 μg/ml. The same compounds were added to plates containing the wild type isogenic control. Screening was performed at the Harvard NSRB/NERCE screening facility that host a collection of 150,000 compounds (see Tables 1A and 1B). All screens at NSRB/NERCE were performed in duplicate, which strongly decreases the rate of false positives and negatives. For each tested molecule there are three possible scenarios when scoring for growth/no growth:
Growth in both the BacPool and K12 wells: indicates lack of antimicrobial activity;
Growth inhibition in both the BacPool and K12 wells: a possible antibiotic (direct activity) or generally toxic compound is present, but is not a prodrug; or
Growth of a BacPool well and no growth of the K12 well: a prodrug hit.
After an overnight incubation of plates at 37° C., the plates were read at OD600. Compounds that had no effect on the growth of the mix and inhibited the growth of the wild type were recorded as hits. The wells with growth indicated a prodrug hit that is not converted into a drug by a particular deletion mutant in the mix. The mutant strain is then identified in a secondary screen (see Example 2).
Yet another screen was performed on 147,500 compounds, using the protocol described below. […]
An E. coli KanR culture was grown in LB broth containing 50 μg/ml Kanamycin for 20 hrs at 37° C. in a shaking incubator. […] The plates were then incubated for 20 hrs at 37° C., and then the plates were read for Optical Density at 600 nm and were scored for growth/no growth. […]
Hits were identified by calculating the % of inhibition of growth of E. coli measured by OD600. The data were analyzed as follows: negative controls (N), positive controls (P), and compounds (X) ODs were separately averaged and the resulting means were used to calculate % of inhibition of E. coli growth: […]

For data set [5], the system named is E. coli K12. Briefly: Growth/no growth control wells (Z′-factor), OD600. It counts as cell-based. How it is done:
The general procedure to establish the Z′-factor was tested. Since the output of the screening is a typical growth/no growth assay, this was performed by comparing growth in control wells to those containing a model antimicrobial, ciprofloxacin at 30 μg/ml. E. coli K12 were cultured in LB medium, and exponentially-growing cells were dispensed at 10^6/ml in 384-well microtiter plates, 30 μl/well. Six plates were used in this experiment. Ciprofloxacin was added to half of the wells (3 μl in LB, bringing the final volume to 33 μl). After an overnight incubation at 37 C, the OD600 of the plates were read, and the values of each well were used to calculate Z′-factor: Z′=1−(3SD++3SD−)/IAve+−Ave−I, where: SD+=positive control standard deviation; SD−=negative control standard deviation; Ave+=positive control average; and Ave−=negative control average). The following table for Z′-factor interpretation was used:
Before beginning the screen, a Z′-test was run. This was conducted by comparing growth in negative control wells to those with the prodrug AZT at 5 μg/ml. E. coli K12 cells were cultured in LB medium, and exponentially-growing cells were dispensed at 10^5/ml in 384-well microtiter plates, 30 μl/well. Four plates were used in this experiment. After an overnight incubation at 37° C., the OD600 of the plates were read, and the values of each well were used to calculate Z′-factor: […]

Data set [6] deals with wild type (WT) E. coli. Briefly: MIC, validation of screen hits. It counts as cell-based. How it is done: (§1) To validate the screening, the activity of nitazole against strains with nitrate reductases deleted and in strains overexpressing nitrate reductases were tested. A prodrug activated by a nitrate reductase has lower activity against a strain lacking the enzyme, and a higher activity in an overexpression strain, as compared to a wild type. E. coli has two known […], NfnB and NfsA. Strains tested were wild type (WT) E. coli, two knockout strains lacking the 2 nitroreductases (NfnB−; NfsA−), and against two strains overexpressing the same enzymes (NfnB+ and NfsA+). MIC values for nitazole are shown below.

The subject of data set [7] is E. coli knockout strains lacking the 2 nitroreductases (NfnB−; NfsA−). Briefly: MIC, validation of screen hits, knockout strains. It counts as cell-based. How it is done: as §1
Data set [8] deals with E. coli strains overexpressing NfnB+ and NfsA+. Briefly: MIC, validation of screen hits, overexpression strains. It counts as cell-based. How it is done:
as §1

Values after ≈ are worked out from the molar mass of the structure shown. Where two headings read alike, the source gives them in different places.

On to `CC1COc2c(N3CCN(C)CC3)c(F)cc3c(=O)c(C(=O)O)cn1c23` (stereo not shown) [ofloxacin], for which the “percentage of live cells” value in data set [1] (biofilm) is on record as 0.1%; in data set [1] (logarithmic population) it was 0.001%; in data set [1] (stationary culture), 2.5%. This compound had an MIC in data set [2] of 0.5 µg/mL (≈ 1.38 µM). In data set [3], the “(maximal) clinically achievable concentration” value is 5 µg/mL.
With `Cc1cn([C@H]2C[C@H](N=[N+]=[N-])[C@@H](CO)O2)c(=O)[nH]c1=O` [zidovudine], in data set [4], the “screen outcome (prodrug hit / direct activity)” value was “prodrug hits”. Further, in data set [5] (positive control at 5 μg/ml), the “inhibition of E. coli growth” value is on record as “complete inhibition”.
For the compound `CC(=O)Nc1ncc([N+](=O)[O-])s1` [nitazole, Acetamide, N-(5-nitro-2-thiazolyl)-(8CI,9CI)], the MIC in data set [6] (Escherichia coli, read-out: MIC) stood at 12.5 µg/mL (≈ 66.8 µM); in data set [7] (Escherichia coli) it was 25 µg/mL (≈ 134 µM); in data set [7] (NfsA−), 25 µg/mL (≈ 134 µM); in data set [8] (Escherichia coli, NfnB+), 1.6 µg/mL (≈ 8.55 µM); in data set [8] (Escherichia coli, NfsA+), 6.3 µg/mL (≈ 33.7 µM). Besides, the “screen outcome (prodrug hit / direct activity)” value in data set [4] is “prodrug hits”.
In the case of “benzoxazole, 2,3-dihydro-5-nitro-2-(5-nitro-2-thienyl)-(9CI)”, the MIC in data set [6] is 12.5 µg/mL; in data set [7] (NfnB−) it was 25 µg/mL; in data set [7] (NfsA−) it was 25 µg/mL; in data set [8] (NfnB+) it was 3.1 µg/mL; in data set [8] (NfsA+), 6.3 µg/mL. Further, the “screen outcome (prodrug hit / direct activity)” value in data set [4] is “prodrug hit”.
`NC[C@H]1O[C@H](O[C@H]2[C@H](O)[C@@H](O[C@H]3O[C@H](CO)[C@@H](O)[C@H](N)[C@H]3O)[C@H](N)C[C@@H]2N)[C@H](N)C[C@@H]1O` [tobramycin] had a biofilm cells eliminated in data set [1] (biofilm, 50 μg/ml) of 90%. Moreover, in data set [1] (logarithmic cells, 1 to 1500 μg/ml), the logarithmic persisters result is “no logarithmic persisters were detected”. In addition, the “killing of stationary cells” value in data set [1] (stationary planktonic cells) is “ineffective”. Also, the MIC in data set [2] came out at 1 µg/mL (≈ 2.14 µM). Besides, the “(maximal) clinically achievable concentration” value in data set [3] is 10 µg/mL.
On to `O=C(O)c1cn(C2CC2)c2cc(N3CCNCC3)c(F)cc2c1=O` [ciprofloxacin], for which the “growth in wells with antibiotic” value in data set [5] (30 μg/ml, overnight at 37 C) is “no case of substantial growth”.

In general, MIC refers to the least concentration at which growth counts as inhibited.
